Assay results reported in patent US20250326753A1, “DUAL CXCR4-BTK INHIBITORS” (X4 Pharmaceuticals, Inc., priority 2022, published 2025).
Read-outs that look alike come from different tables or passages of the source.

Key:
CXCR4 [1] = biological target: T1, CXCR4 (Homo sapiens, UniProt P61073); experiment: Chemokine (CXCL12-AF647) binding inhibition assay, Jurkat cells expressing CXCR4; settings: CXCL12-AF647 25 ng/ml, read-out: IC50 CXCL-12 binding Jurkat
Experimental: Jurkat cells expressing CXCR4 were washed once with assay buffer (Hanks' balanced salt solution with 20 mM HEPES buffer and 0.2% bovine serum albumin, pH 7.4) and then incubated for 15 min at room temperature with the test compounds diluted in assay buffer at dose-dependent concentrations. Subsequently, CXCL12-AF647 (25 ng/ml) was added to the compound-incubated cells. The cells were incubated for 30 min at room temperature. Thereafter, the cells were washed twice in assay buffer, fixed in 1% paraformaldehyde in PBS, and analyzed on the FL4 channel of a FACSCalibur flow cytometer equipped with a 635-nm red diode laser (Becton Dickinson, San Jose, CA, USA).
The percentages of inhibition of CXCL12-AF647 binding were calculated according to the formula: [1−((MFI−MFINC)/(MFIPC−MFINC))]×100 where MFI is the mean fluorescence intensity of the cells incubated with CXCL 12-AF647 in the presence of the inhibitor, MFINC is the mean fluorescence intensity measured in the negative control (i.e., autofluorescence of unlabeled cells), and MFIPC is the mean fluorescence intensity of the positive control (i.e., cells exposed to CXCL12-AF647 alone).

[2] = biological target: T2, BTK (Bruton tyrosine kinase) (Homo sapiens, UniProt Q06187); experiment: BTK screening assay (33PanQinase Activity Assay, radiometric); type: biochemical; settings: Inhibition of BTK, radiometric 33PanQinase Activity Assay, 3 μM ATP, 10 concentrations in singlicate, top 10 μM; read-out: 33PanQinase ® Radiometric IC50
T2 construct: GST or His (the text leaves open which); purchased Reaction Biology Europe GmbH Lot 012,11; host or cells: Sf9 insect cells or E. coli (not resolved)
T2 sequence (Q06187 whole entry): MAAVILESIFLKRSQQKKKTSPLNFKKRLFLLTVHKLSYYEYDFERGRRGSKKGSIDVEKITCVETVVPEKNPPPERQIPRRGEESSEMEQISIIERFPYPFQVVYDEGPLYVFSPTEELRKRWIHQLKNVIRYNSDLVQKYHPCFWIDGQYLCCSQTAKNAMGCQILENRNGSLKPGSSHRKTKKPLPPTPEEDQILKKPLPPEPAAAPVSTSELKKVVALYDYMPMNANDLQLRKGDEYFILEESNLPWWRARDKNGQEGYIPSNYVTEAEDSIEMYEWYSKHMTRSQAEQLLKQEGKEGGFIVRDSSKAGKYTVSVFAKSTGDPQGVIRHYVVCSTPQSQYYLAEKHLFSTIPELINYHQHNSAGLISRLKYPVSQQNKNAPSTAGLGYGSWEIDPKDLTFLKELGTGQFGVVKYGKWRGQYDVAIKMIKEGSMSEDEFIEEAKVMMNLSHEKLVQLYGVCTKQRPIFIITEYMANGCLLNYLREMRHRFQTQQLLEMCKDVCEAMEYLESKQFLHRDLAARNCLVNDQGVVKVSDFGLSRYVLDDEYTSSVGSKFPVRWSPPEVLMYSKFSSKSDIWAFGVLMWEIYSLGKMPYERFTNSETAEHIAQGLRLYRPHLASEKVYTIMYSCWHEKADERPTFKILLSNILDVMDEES
Experimental: Inhibition of BTK activity was evaluated using a radiometric protein kinase assay (33PanQinase® Activity Assay) to measure the activity of BTK (Bruton tyrosine kinase).
Kinase assays were performed in 96-well ScintiPlates™ from Perkin Elmer (Boston, MA, USA) in a 50 μL reaction volume. The reaction cocktail was pipetted in four steps in the following order: 10 μL of non-radioactive ATP solution (in H2O); 25 μL of assay buffer/[γ-^33P]-ATP mixture; 5 μL of compound test sample in 10% DMSO; 10 μL of enzyme/substrate mixture.
BTK kinase was expressed in Sf9 insect cells or in E. coli as recombinant GST-fusion proteins or His-tagged proteins, either as full-length or enzymatically active fragments from human cDNAs, and purified by either GSH-affinity chromatography or immobilized metal. Purity was examined by SDS-PAGE/Coomassie staining, and identity confirmed by mass spectroscopy.
The reaction cocktails were incubated at 30° C. for 60 minutes. The reaction was stopped with 50 μL of 2% (v/v) H3PO4, plates were aspirated and washed two times with 200 μL 0.9% (w/v) NaCl. Incorporation of ^33Pi (counting of “cpm”) was determined with a microplate scintillation counter (Microbeta, Wallac).
The median value of the counts in wells containing assay buffer without enzyme, and without test compound was defined as “low control.” This value reflects unspecific binding of radioactivity to the plate in the absence of a protein kinase but in the presence of the substrate. The median value of the counts in wells containing assay buffer without test compound was defined as the “high control,” i.e. full activity in the absence of any inhibitor. The difference between high and low control was taken as 100% activity. Residual activity (in %) was calculated using the following formula: Res. Activity (%)=100×[(cpm of compound-low control)/(high control-low control)].
The fitting method used was a least-squares fit.

CXCR4 [3] = biological target: T1, CXCR4; experiment: Intracellular CXCL-12-induced calcium mobilization assay (FLIPR), U87.CXCR4 cells; type: cell-based; design: expressed in transfected cells; host or cells: U87 (U87.CXCR4); settings: CXCL-12 25-50 ng/ml, read-out: IC50 CXCL-12 Ca2+ flux U87.CXCR4+
Experimental: Intracellular calcium mobilization induced by chemokines or chemokine-derived peptides were evaluated using a calcium responsive fluorescent probe and a FLIPR system. The CXCR-4 transfected U87 cell line (U87.CXCR4) cells were seeded in gelatine-coated black-wall 96-well plates at 20,000 cells per well and incubated for 12 hours. Cells were then loaded with the fluorescent calcium probe Fluo-2 acetoxymethyl at 4 μM final concentration in assay buffer (Hanks' balanced salt solution with 20 mM HEPES buffer and 0.2% bovine serum albumin, pH 7.4) for 45 min at 37° C. The intracellular calcium mobilization induced by the CXCL-12 (25-50 ng/ml) was then measured at 37° C. by monitoring the fluorescence as a function of time in all the wells simultaneously using a fluorometric imaging plate reader (FLIPR Tetra, Molecular Devices).

BTK = BTK (Homo sapiens, UniProt Q06187); experiment: BTK Kinase Enzyme System with ADP-Glo Kinase Assay; type: biochemical; design: Recombinant full-length human BTK was expressed by baculovirus in Sf9 insect cells; His (N); purchased Promega V9071; host or cells: Sf9 insect cells (baculovirus); settings: 50 μM ATP
Chain of BTK (Q06187 whole entry): as above
Experimental: Inhibition of BTK activity was evaluated using the BTK Kinase Enzyme System in combination with the ADP-Glo™ Kinase Assay Kit (V9071, Promega), according to manufacturer's instructions. Luminescence was detected on a PerkinElmer EnVision Multimode Plate Reader.
Recombinant full-length human BTK was expressed by baculovirus in Sf9 insect cells using an N-terminal His tag, MW ˜78 kDa. Substrate solution contained Poly (4:1 Glu, Tyr) Peptide Substrate. BTK Kinase Buffer consisted of: 40 mM Tris, pH 7.5; 20 mM MgCl2; 0.1 mg/ml BSA; 2 mM MnCl2; 50 μM DTT. ADP-Glo™ Reagents were thawed at ambient temperature; components of BTK Enzyme System, ADP and ATP were thawed on ice. Final assay conditions used 3 ng BTK, 50 μM ATP, and 0.2 mg/mL substrate. Compounds were tested at 11 dose points in duplicates, in 3-fold dilution with top concentration at 10 μM.
Assay performance was evaluated according to the reference compound Staurosporine, which was within 3-5 fold of published results and between different tests, with a Z′ value larger than 0.5, where applicable.

Ramos cell line = Ramos cell line viability assay (CellTiter-Glo, 72 hr); type: cell-based; settings: Homo sapiens
Experimental: Inhibition of non-Hodgkin lymphoma B-cell proliferation by compounds of the present invention was evaluated in a Ramos cell line. Ramos is a B lymphocyte cell line that was derived from a patient with Burkitt's Lymphoma.
Cell viability was analyzed with the CellTiter-Glo® Luminescent Cell Viability Assay Kit (G7572, Promega), according to the manufacturer's instruction. Cells were seeded into a 96-well/384-well plate and then incubated in 5% CO2 at 37° C. overnight. Compounds were added to the cells, with 9-10 dose points in duplicates in 3-fold dilution from a top concentration of 30 μM, and incubated in 5% CO2 at 37° C. for 72 hr. The 96-well/384-well plate was equilibrated at room temperature for 30 min. 50 μl/25 μl of CellTiter-Glo® Reagent was added to each well and mixed for 2 min on an orbital shaker to induce cell lysis. The 96-well/384-well plate was incubated at room temperature for 10 min to stabilize luminescent signal. Luminescence was detected on a PerkinElmer EnVision Multimode Plate Reader as relative luminescence units (RLU).

[4] = class, read-out: Ramos viability IC50

T1 sequence (P61073 whole entry): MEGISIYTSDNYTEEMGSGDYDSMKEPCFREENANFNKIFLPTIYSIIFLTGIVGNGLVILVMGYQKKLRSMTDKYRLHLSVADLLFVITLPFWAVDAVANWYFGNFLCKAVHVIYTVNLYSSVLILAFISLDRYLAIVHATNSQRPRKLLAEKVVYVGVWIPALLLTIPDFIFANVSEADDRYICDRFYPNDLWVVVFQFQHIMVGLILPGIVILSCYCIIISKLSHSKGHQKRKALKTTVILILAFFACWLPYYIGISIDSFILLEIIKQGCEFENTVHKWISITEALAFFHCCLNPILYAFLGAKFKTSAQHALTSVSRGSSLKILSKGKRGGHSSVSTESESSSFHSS

IC50 (CXCR4 [1])	IC50 [2]	IC50 (CXCR4 [3])	IC50 (BTK)	IC50 (Ramos cell line; [4])	IC50 (Ramos cell line; read-out: IC50)	Structure (SMILES)
1 to 100 nM	100 to 1000 nM	> 2500 nM	100 to 1000 nM			Cc1cccnc1[C@H]1CCC[C@@H](c2ncccc2C)N1CCCCNC(=O)c1cc2c(-c3ccc(CNC(=O)c4ccc(C(C)(C)C)cc4)cc3)ncnc2[nH]1 [Compound I-1]
1 to 100 nM	1000 to 2500 nM	> 2500 nM	1000 to 2500 nM			Cc1cccnc1[C@H]1CCC[C@@H](c2ncccc2C)N1CCCCN(C)C(=O)c1cc2c(-c3ccc(CNC(=O)c4ccc(C(C)(C)C)cc4)cc3)ncnc2[nH]1 [Compound I-2]
100 to 1000 nM	1 to 100 nM	> 2500 nM	1 to 100 nM			Cc1cc(-c2ncnc3[nH]c(C(=O)NCCN4[C@@H](c5ncccc5C)CCC[C@H]4c4ncccc4C)cc23)ccc1CNC(=O)c1ccc(C(C)(C)C)cc1 [Compound I-3]
1 to 100 nM	1 to 100 nM	> 2500 nM	1 to 100 nM			Cc1cc(-c2ncnc3[nH]c(C(=O)NCCCN4[C@@H](c5ncccc5C)CCC[C@H]4c4ncccc4C)cc23)ccc1CNC(=O)c1ccc(C(C)(C)C)cc1 [Compound I-4]
100 to 1000 nM	100 to 1000 nM	> 2500 nM	100 to 1000 nM			Cc1cc(-c2ncnc3[nH]c(C(=O)N(C)CCCN4[C@@H](c5ncccc5C)CCC[C@H]4c4ncccc4C)cc23)ccc1CNC(=O)c1ccc(C(C)(C)C)cc1 [Compound I-5]
1 to 100 nM	1 to 100 nM	> 2500 nM	1 to 100 nM	1500 to 2000 nM	1550 nM	Cc1cc(-c2ncnc3[nH]c(C(=O)NCCCCN4[C@@H](c5ncccc5C)CCC[C@H]4c4ncccc4C)cc23)ccc1CNC(=O)c1ccc(C(C)(C)C)cc1 [Compound I-6]
100 to 1000 nM	1 to 100 nM	> 2500 nM	1 to 100 nM	1500 to 2000 nM	1620 nM	Cc1cccnc1[C@H]1CCC[C@@H](c2ncccc2C)N1CCN1CCN(C(=O)c2ccc(-c3cc4c(-c5cccc(NC(=O)c6ccc(C(C)(C)C)cc6)c5C)ncnc4[nH]3)cc2)CC1 [Compound I-7]
1 to 100 nM	1 to 100 nM	100 to 1000 nM	1 to 100 nM	≥ 4000 nM	11100 nM	Cc1cccnc1[C@H]1CCC[C@@H](c2ncccc2C)N1CCNC1CN(C(=O)c2ccc(-c3cc4c(-c5cccc(NC(=O)c6ccc(C(C)(C)C)cc6)c5C)ncnc4[nH]3)cc2)C1 [Compound I-8]
1 to 100 nM	100 to 1000 nM	1 to 100 nM	100 to 1000 nM	2000 to 4000 nM	3540 nM	Cc1cccnc1[C@H]1CCC[C@@H](c2ncccc2C)N1CCNC1CN(C(=O)c2ccc(-c3cc4c(-c5cccc(NC(=O)c6ccccc6)c5C)ncnc4[nH]3)cc2)C1 [Compound I-9]
1 to 100 nM	1 to 100 nM	1000 to 2500 nM	1 to 100 nM	2000 to 4000 nM	2780 nM	Cc1cc(-c2ccnc(Nc3cnn(CCCN4[C@@H](c5ncccc5C)CCC[C@H]4c4ncccc4C)c3)n2)ccc1CNC(=O)N1CC(OC(C)C)C1 [Compound I-12, N-(4-(2-(1-(3-((2S,6R)-2,6-bis(3-methylpyridin-2-yl)piperidin-1-yl)propyl)-1H-pyrazol-4-ylamino)pyrimidin-4-yl)-2-methylbenzyl)-3-isopropoxyazetidine-1-carboxamide]
100 to 1000 nM	100 to 1000 nM	> 2500 nM	100 to 1000 nM			Cc1cccnc1[C@H]1CCC[C@@H](c2ncccc2C)N1CCCCNC[C@@H]1CC[C@@H](Nc2ncnc3[nH]cc(C(=O)c4ccc(Oc5ccccc5)cc4Cl)c23)CO1 [Compound I-13, (4-((3R,6S)-6-((4-((2R,6S)-2,6-bis(3-methylpyridin-2-yl)piperidin-1-yl)butylamino)methyl)tetrahydro-2H-pyran-3-ylamino)-7H-pyrrolo[2,3-d]pyrimidin-5-yl) (2-chloro-4-phenoxyphenyl) methanone]
> 2500 nM	1 to 100 nM	> 2500 nM	1 to 100 nM			Cc1cccnc1[C@H]1CCC[C@@H](c2ncccc2C)N1CCCCOC(=O)[C@@H]1CC[C@@H](Nc2ncnc3[nH]cc(C(=O)c4ccc(Oc5ccccc5)cc4Cl)c23)CO1 [Compound I-14]
1000 to 2500 nM	1000 to 2500 nM	> 2500 nM	1000 to 2500 nM			Cc1cccnc1[C@H]1CCC[C@@H](c2ncccc2C)N1CCNC[C@@H]1CC[C@@H](Nc2ncnc3[nH]cc(C(=O)c4ccc(Oc5ccccc5)cc4Cl)c23)CO1 [Compound I-15, (4-((3R,6S)-6-((2-((2R,6S)-2,6-bis(3-methylpyridin-2-yl)piperidin-1-yl)ethylamino)methyl)tetrahydro-2H-pyran-3-ylamino)-7H-pyrrolo[2,3-d]pyrimidin-5-yl) (2-chloro-4-phenoxyphenyl) methanone]
1000 to 2500 nM	1 to 100 nM	> 2500 nM	1 to 100 nM			Cc1cccnc1[C@H]1CCC[C@@H](c2ncccc2C)N1CCNC(=O)[C@@H]1CC[C@@H](Nc2ncnc3[nH]cc(C(=O)c4ccc(Oc5ccccc5)cc4Cl)c23)CO1 [Compound I-17]
